Laboratory results from patent US20220218852A1, “NOVEL RADIOLABELLED CXCR4-TARGETING COMPOUNDS FOR DIAGNOSIS AND THERAPY” (PROVINCIAL HEALTH SERVICES AUTHORITY, priority 2019, published 2022).
Like-named read-outs stand apart in the source and are kept apart here. Positions of bridges follow the written chain, without caps; N, C: chain ends. Non-standard residues stand in square brackets, D forms with d. Residues, ends and D or L forms follow the SMILES beside them. Groups on a side chain read outwards from the residue. *: point of attachment. DOTA = O=C(O)CN1CCN(CC(=O)O)CCN(CC(=O)*)CCN(CC(=O)O)CC1; 2Nal = N[C@@H](Cc1ccc2ccccc2c1)C(=O)O; Lys(iPr) = CC(C)NCCCC[C@H](N)C(=O)O

Assays:
[1] = test system: Daudi Burkitt's lymphoma xenografts; test: Biodistribution in Daudi tumor-bearing mice; format: in vivo; settings: Daudi xenograft bearing mice
Procedure: (§1) For Daudi, Z138, GRANTA519 and Jeko1 xenografts, male NOD.Cg-Rag1^tm1MomII2rg^tm1Wjl/SzJ (NRG) mice were subcutaneously inoculated on the left flank with 5×10^6 cells (100 μL; 1:1 ratio of PBS/Matrigel) and tumors were grown to a size of 200-500 mm^3. For PC-3 xenografts, male NOD.Cg-Rag1^tm1MomII2rg^tm1Wjl/SzJ (NRG) mice were subcutaneously inoculated on the left flank with 5×10^6 PC-3 cells (100 μL; 1:1 ratio of PBS/Matrigel) and tumors were grown to a size of 200-400 mm^3.
(§2) The mice were euthanized via CO2 inhalation while anesthetized with isoflurane. Tissues were harvested, washed in PBS, blotted dry, weighed, and measured on a Hidex AMG Automatic Gamma Counter.

[2] = Biodistribution in Daudi tumor-bearing mice; format: in vivo; settings: male, NOD.Cg-Rag1^tm1MomII2rg^tm1Wjl/SzJ (NRG), mouse, iv, total radioactivity, Daudi xenograft bearing mice
Procedure: as §1, §2

[3] = 1 h blocked (7.5 μg LY2510924 i.p. 15 min before tracer)

- Ratio Tumour:Blood ([1]; 1 h): 22.78
- Ratio Tumour:Bone ([1]; 1 h): 54.57
- Ratio Tumour:Liver ([1]; 1 h): 15.68
- Ratio Tumour:Lung ([1]; 1 h): 18.12
- Ratio Tumour:Muscle ([1]; 1 h): 125.40
- Ratio Tumour:Spleen ([1]; 1 h): 18.55
- Ratio Tumour:Blood [1, 3]: 0.90
- Ratio Tumour:Bone [1, 3]: 3.88
- Ratio Tumour:Liver [1, 3]: 1.34
- Ratio Tumour:Lung [1, 3]: 0.82
- Ratio Tumour:Muscle [1, 3]: 4.49
- Ratio Tumour:Spleen [1, 3]: 1.96
- Ratio Tumour:Blood ([1]; 2 h): 113.17
- Ratio Tumour:Bone ([1]; 2 h): 189.39
- Ratio Tumour:Liver ([1]; 2 h): 15.57
- Ratio Tumour:Lung ([1]; 2 h): 37.40
- Ratio Tumour:Muscle ([1]; 2 h): 346.93
- Ratio Tumour:Spleen ([1]; 2 h): 41.58
- tissue uptake at 1 h ([2]; Daudi tumour, 1 h, read-out: Biodistribution Daudi (tumour)): 9.07 %ID/g
- tissue uptake at 1 h ([2]; Daudi tumour, 1 h blocked (7.5 μg LY2510924 i.p. 15 min before tracer), read-out: Biodistribution Daudi (tumour)): 0.59 %ID/g
- tissue uptake at 2 h ([2]; Daudi tumour, read-out: Biodistribution Daudi (tumour)): 8.01 %ID/g
- tissue uptake at 1 h ([2]; adrenals, 1 h, read-out: Biodistribution Adrenals): 0.35 %ID/g
- tissue uptake at 1 h ([2]; adrenals, 1 h blocked (7.5 μg LY2510924 i.p. 15 min before tracer), read-out: Biodistribution Adrenals): 0.35 %ID/g
- tissue uptake at 2 h ([2]; adrenals, read-out: Biodistribution Adrenals): 0.27 %ID/g
- tissue uptake at 1 h ([2]; blood, 1 h, read-out: Biodistribution Blood): 0.42 %ID/g
- tissue uptake at 1 h ([2]; blood, 1 h blocked (7.5 μg LY2510924 i.p. 15 min before tracer), read-out: Biodistribution Blood): 0.65 %ID/g
- tissue uptake at 2 h ([2]; blood, read-out: Biodistribution Blood): 0.08 %ID/g
- tissue uptake at 1 h ([2]; bone, 1 h, read-out: Biodistribution Bone): 0.17 %ID/g
- tissue uptake at 1 h ([2]; bone, 1 h blocked (7.5 μg LY2510924 i.p. 15 min before tracer), read-out: Biodistribution Bone): 0.15 %ID/g
- tissue uptake at 2 h ([2]; bone, read-out: Biodistribution Bone): 0.05 %ID/g
- tissue uptake at 1 h ([2]; brain, 1 h, read-out: Biodistribution Brain): 0.01 %ID/g
- tissue uptake at 1 h ([2]; brain, 1 h blocked (7.5 μg LY2510924 i.p. 15 min before tracer), read-out: Biodistribution Brain): 0.02 %ID/g
- tissue uptake at 2 h ([2]; brain, read-out: Biodistribution Brain): 0.01 %ID/g
- tissue uptake at 1 h ([2]; fat, 1 h, read-out: Biodistribution Fat): 0.06 %ID/g
- tissue uptake at 1 h ([2]; fat, 1 h blocked (7.5 μg LY2510924 i.p. 15 min before tracer), read-out: Biodistribution Fat): 0.12 %ID/g
- tissue uptake at 2 h ([2]; fat, read-out: Biodistribution Fat): 0.01 %ID/g
- tissue uptake at 1 h ([2]; heart, 1 h, read-out: Biodistribution Heart): 0.15 %ID/g
- tissue uptake at 1 h ([2]; heart, 1 h blocked (7.5 μg LY2510924 i.p. 15 min before tracer), read-out: Biodistribution Heart): 0.22 %ID/g
- tissue uptake at 2 h ([2]; heart, read-out: Biodistribution Heart): 0.05 %ID/g
- tissue uptake at 1 h ([2]; intestine, 1 h, read-out: Biodistribution Intestine): 0.21 %ID/g
- tissue uptake at 1 h ([2]; intestine, 1 h blocked (7.5 μg LY2510924 i.p. 15 min before tracer), read-out: Biodistribution Intestine): 0.37 %ID/g
- tissue uptake at 2 h ([2]; intestine, read-out: Biodistribution Intestine): 0.25 %ID/g
- tissue uptake at 1 h ([2]; kidney, 1 h, read-out: Biodistribution Kidney): 3.58 %ID/g
- tissue uptake at 1 h ([2]; kidney, 1 h blocked (7.5 μg LY2510924 i.p. 15 min before tracer), read-out: Biodistribution Kidney): 5.92 %ID/g
- tissue uptake at 2 h ([2]; kidney, read-out: Biodistribution Kidney): 3.02 %ID/g
- tissue uptake at 1 h ([2]; liver, 1 h, read-out: Biodistribution Liver): 0.58 %ID/g
- tissue uptake at 1 h ([2]; liver, 1 h blocked (7.5 μg LY2510924 i.p. 15 min before tracer), read-out: Biodistribution Liver): 0.44 %ID/g
- tissue uptake at 2 h ([2]; liver, read-out: Biodistribution Liver): 0.51 %ID/g
- tissue uptake at 1 h ([2]; lung, 1 h, read-out: Biodistribution Lung): 0.51 %ID/g
- tissue uptake at 1 h ([2]; lung, 1 h blocked (7.5 μg LY2510924 i.p. 15 min before tracer), read-out: Biodistribution Lung): 0.71 %ID/g
- tissue uptake at 2 h ([2]; lung, read-out: Biodistribution Lung): 0.22 %ID/g
- tissue uptake at 1 h ([2]; muscle, 1 h, read-out: Biodistribution Muscle): 0.08 %ID/g
- tissue uptake at 1 h ([2]; muscle, 1 h blocked (7.5 μg LY2510924 i.p. 15 min before tracer), read-out: Biodistribution Muscle): 0.13 %ID/g
- tissue uptake at 2 h ([2]; muscle, read-out: Biodistribution Muscle): 0.02 %ID/g
- tissue uptake at 1 h ([2]; pancreas, 1 h, read-out: Biodistribution Pancreas): 0.11 %ID/g
- tissue uptake at 1 h ([2]; pancreas, 1 h blocked (7.5 μg LY2510924 i.p. 15 min before tracer), read-out: Biodistribution Pancreas): 0.16 %ID/g
- tissue uptake at 2 h ([2]; pancreas, read-out: Biodistribution Pancreas): 0.04 %ID/g
- tissue uptake at 1 h ([2]; spleen, 1 h, read-out: Biodistribution Spleen): 0.49 %ID/g
- tissue uptake at 1 h ([2]; spleen, 1 h blocked (7.5 μg LY2510924 i.p. 15 min before tracer), read-out: Biodistribution Spleen): 0.3 %ID/g
- tissue uptake at 2 h ([2]; spleen, read-out: Biodistribution Spleen): 0.21 %ID/g
- tissue uptake at 1 h ([2]; stomach, 1 h, read-out: Biodistribution Stomach): 0.05 %ID/g
- tissue uptake at 1 h ([2]; stomach, 1 h blocked (7.5 μg LY2510924 i.p. 15 min before tracer), read-out: Biodistribution Stomach): 0.24 %ID/g
- tissue uptake at 2 h ([2]; stomach, read-out: Biodistribution Stomach): 0.05 %ID/g
- tissue uptake at 1 h ([2]; testes, 1 h, read-out: Biodistribution Testes): 0.15 %ID/g
- tissue uptake at 1 h ([2]; testes, 1 h blocked (7.5 μg LY2510924 i.p. 15 min before tracer), read-out: Biodistribution Testes): 0.2 %ID/g
- tissue uptake at 2 h ([2]; testes, read-out: Biodistribution Testes): 0.05 %ID/g
SMILES: CC(C)NCCCC[C@@H]1NC(=O)[C@H](Cc2ccc(O)cc2)NC(=O)[C@H](Cc2ccccc2)NC(=O)CC[C@H](C(=O)N[C@@H](CCCCNC(C)C)C(=O)N[C@@H](CCCCNC(=O)[C@@H](CCC(=O)O)NC(=O)[C@@H](CCC(=O)O)NC(=O)[C@@H](CCC(=O)O)NC(=O)CN2CCN(CC(=O)O)CCN(CC(=O)O)CCN(CC(=O)O)CC2)C(N)=O)NC(=O)CNC(=O)[C@H](Cc2ccc3ccccc3c2)NC(=O)[C@@H](CCCNC(=N)N)NC1=O [[^68Ga]Ga-BL20, metal not drawn] (FY[Lys(iPr)][dR][2Nal]G[dE][Lys(iPr)]K([dE-dE-dE-DOTA])-NH2; lactam N-7)
